Source: ChEMBL document CHEMBL2346616, “Design and synthesis of novel pyrimido[4,5-b]azepine derivatives as HER2/EGFR dual inhibitors” (Bioorg Med Chem, 2013)
One block for each compound: values may come before it. The source made the active and inactive calls. The calls are words filed in the database; no cut-off is given here.

Tests used:
[1] = biological target: T1, Receptor tyrosine-protein kinase erbB-2 (Homo sapiens, UniProt P04626); assay: Inhibition of human N-terminal DYKDDDD-tagged HER2 cytoplasmic domain (676 to 1255) expressed in baculovirus expression system incubated for 5 mins prior to [gamma-32P]ATP addition measured after 10 mins by scintillation counting analysis
T1 sequence (P04626 whole entry, the tested form may be a part): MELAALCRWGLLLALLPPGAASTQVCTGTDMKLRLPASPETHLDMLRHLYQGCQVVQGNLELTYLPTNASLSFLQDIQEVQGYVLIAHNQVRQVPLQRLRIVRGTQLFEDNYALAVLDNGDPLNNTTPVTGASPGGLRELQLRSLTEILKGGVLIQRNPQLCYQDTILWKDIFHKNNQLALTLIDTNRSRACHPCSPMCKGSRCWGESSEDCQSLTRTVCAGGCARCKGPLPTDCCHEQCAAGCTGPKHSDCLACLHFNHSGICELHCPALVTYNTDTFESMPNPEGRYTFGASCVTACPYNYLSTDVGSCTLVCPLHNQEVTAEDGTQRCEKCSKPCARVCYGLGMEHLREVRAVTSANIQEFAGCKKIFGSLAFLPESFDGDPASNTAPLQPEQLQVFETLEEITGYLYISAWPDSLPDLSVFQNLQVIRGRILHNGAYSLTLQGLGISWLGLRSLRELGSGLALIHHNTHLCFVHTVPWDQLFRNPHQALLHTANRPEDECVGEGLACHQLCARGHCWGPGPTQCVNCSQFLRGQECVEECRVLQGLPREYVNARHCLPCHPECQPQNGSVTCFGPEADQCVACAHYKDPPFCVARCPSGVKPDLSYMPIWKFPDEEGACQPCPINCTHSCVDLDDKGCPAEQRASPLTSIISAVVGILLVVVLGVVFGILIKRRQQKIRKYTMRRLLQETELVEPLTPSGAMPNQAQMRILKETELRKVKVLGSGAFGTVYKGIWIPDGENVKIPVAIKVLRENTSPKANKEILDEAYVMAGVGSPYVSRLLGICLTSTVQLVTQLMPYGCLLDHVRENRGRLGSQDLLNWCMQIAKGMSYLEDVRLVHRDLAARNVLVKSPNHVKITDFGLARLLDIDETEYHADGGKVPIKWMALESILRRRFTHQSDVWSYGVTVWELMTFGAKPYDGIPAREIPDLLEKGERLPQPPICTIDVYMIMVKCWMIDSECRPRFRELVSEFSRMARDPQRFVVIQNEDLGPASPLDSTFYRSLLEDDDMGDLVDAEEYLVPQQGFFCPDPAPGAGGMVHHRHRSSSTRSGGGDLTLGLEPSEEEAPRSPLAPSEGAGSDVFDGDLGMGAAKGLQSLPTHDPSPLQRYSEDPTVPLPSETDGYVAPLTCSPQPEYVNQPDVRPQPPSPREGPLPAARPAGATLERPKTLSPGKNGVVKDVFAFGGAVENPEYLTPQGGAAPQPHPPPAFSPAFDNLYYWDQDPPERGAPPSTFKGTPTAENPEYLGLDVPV

[2] = biological target: Epidermal growth factor receptor (Homo sapiens, UniProt P00533); assay: Inhibition of human N-terminal DYKDDDD-tagged EGFR cytoplasmic domain (669 to 1210) expressed in baculovirus expression system incubated for 5 mins prior to [gamma-32P]ATP addition measured after 10 mins by scintillation counting analysis
Epidermal growth factor receptor, sequence (P00533 whole entry, the tested form may be a part): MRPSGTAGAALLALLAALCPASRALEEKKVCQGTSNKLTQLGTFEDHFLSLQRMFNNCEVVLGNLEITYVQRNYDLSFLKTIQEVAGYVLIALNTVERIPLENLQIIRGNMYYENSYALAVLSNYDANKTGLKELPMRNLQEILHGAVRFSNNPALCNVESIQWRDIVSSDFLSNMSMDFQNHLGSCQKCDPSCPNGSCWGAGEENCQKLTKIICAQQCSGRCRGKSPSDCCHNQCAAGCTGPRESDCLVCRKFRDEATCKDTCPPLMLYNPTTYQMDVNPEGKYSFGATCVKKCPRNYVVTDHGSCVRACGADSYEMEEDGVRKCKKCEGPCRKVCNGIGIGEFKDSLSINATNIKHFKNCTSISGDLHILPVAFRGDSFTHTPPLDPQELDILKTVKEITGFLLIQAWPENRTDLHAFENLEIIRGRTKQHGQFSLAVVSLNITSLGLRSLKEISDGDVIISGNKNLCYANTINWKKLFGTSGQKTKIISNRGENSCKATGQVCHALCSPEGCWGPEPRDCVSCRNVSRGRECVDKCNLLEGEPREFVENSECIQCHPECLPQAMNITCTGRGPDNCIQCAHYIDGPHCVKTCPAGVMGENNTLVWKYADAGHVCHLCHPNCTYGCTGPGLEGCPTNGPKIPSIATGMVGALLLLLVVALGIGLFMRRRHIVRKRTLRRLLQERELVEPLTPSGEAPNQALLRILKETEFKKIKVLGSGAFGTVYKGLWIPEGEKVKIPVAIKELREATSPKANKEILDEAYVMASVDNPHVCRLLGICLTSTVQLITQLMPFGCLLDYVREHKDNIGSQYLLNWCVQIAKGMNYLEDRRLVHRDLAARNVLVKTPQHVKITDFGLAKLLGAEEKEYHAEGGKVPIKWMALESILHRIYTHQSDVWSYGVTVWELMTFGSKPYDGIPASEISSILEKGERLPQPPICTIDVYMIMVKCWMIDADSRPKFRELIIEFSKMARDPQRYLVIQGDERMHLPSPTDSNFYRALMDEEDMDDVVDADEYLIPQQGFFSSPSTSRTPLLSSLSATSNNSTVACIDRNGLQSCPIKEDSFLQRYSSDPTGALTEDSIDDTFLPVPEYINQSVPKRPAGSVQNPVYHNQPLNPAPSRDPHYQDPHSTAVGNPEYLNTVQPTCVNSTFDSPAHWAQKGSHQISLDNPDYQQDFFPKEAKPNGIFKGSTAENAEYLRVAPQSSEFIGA

BT-474 = assay: Growth inhibition of human BT474 cells overexpressing HER2 after 5 days; format: functional; settings: BT-474, 120 h
[3] = biological target: Receptor tyrosine-protein kinase erbB-4 (Homo sapiens, UniProt Q15303); assay: Inhibition of HER4 cytoplasmic domain (unknown origin) expressed in baculovirus expression system incubated for 5 mins prior to [gamma-32P]ATP addition measured after 10 mins by scintillation counting analysis
Angiopoietin-1 receptor = Angiopoietin-1 receptor (Homo sapiens, UniProt Q02763); assay: Inhibition of TIE2 (unknown origin) incubated for 5 mins prior to ATP addition measured after 10 mins by Alphascreen assay
[4] = biological target: Insulin-like growth factor 1 receptor (Homo sapiens, UniProt P08069); assay: Inhibition of IGF1R (unknown origin) incubated for 5 mins prior to ATP addition measured after 20 mins by Alphascreen assay
[5] = biological target: Protein kinase C theta type (Homo sapiens, UniProt Q04759); assay: Inhibition of N-terminal FLAG-tagged PKCtheta (unknown origin) expressed in baculovirus expression system incubated for 5 mins prior to [gamma-33P]ATP addition measured after 60 mins by scintillation counting analysis
[6] = biological target: Platelet-derived growth factor receptor beta (Homo sapiens, UniProt P09619); assay: Inhibition of PDGFRbeta (unknown origin) incubated for 5 mins prior to ATP addition measured after 60 mins by Alphascreen assay
[7] = biological target: Tyrosine-protein kinase CSK (Homo sapiens, UniProt P41240); assay: Inhibition of CSK (unknown origin) incubated for 5 mins prior to ATP addition measured after 10 mins by Alphascreen assay
[8] = biological target: Dual specificity protein kinase TTK (Homo sapiens, UniProt P33981); assay: Inhibition of N-terminal FLAG-tagged TTK (unknown origin) expressed in baculovirus expression system incubated for 5 mins prior to [gamma-33P]ATP addition measured after 10 mins by scintillation counting analysis
[9] = biological target: Fibroblast growth factor receptor 1 (Homo sapiens, UniProt P11362); assay: Inhibition of FGFR1 (unknown origin) incubated for 5 mins prior to ATP addition measured after 10 mins by Alphascreen assay
[10] = biological target: Mitogen-activated protein kinase 3 (Homo sapiens, UniProt P27361); assay: Inhibition of N-terminal FLAG-tagged ERK1 (unknown origin) expressed in baculovirus expression system incubated for 5 mins prior to [gamma-33P]ATP addition measured after 60 mins by scintillation counting analysis
[11] = Inhibition of PKA (unknown origin) expressed in Escherichia coli expression system incubated for 5 mins prior to [gamma-33P]ATP addition measured after 10 mins by scintillation counting analysis; parameters: species or system Homo sapiens
[12] = biological target: T2, Tyrosine-protein kinase Lyn (Homo sapiens, UniProt P07948); assay: Inhibition of LYNA (unknown origin) incubated for 5 mins prior to ATP addition measured after 10 mins by Alphascreen assay
T2 sequence (P07948 whole entry): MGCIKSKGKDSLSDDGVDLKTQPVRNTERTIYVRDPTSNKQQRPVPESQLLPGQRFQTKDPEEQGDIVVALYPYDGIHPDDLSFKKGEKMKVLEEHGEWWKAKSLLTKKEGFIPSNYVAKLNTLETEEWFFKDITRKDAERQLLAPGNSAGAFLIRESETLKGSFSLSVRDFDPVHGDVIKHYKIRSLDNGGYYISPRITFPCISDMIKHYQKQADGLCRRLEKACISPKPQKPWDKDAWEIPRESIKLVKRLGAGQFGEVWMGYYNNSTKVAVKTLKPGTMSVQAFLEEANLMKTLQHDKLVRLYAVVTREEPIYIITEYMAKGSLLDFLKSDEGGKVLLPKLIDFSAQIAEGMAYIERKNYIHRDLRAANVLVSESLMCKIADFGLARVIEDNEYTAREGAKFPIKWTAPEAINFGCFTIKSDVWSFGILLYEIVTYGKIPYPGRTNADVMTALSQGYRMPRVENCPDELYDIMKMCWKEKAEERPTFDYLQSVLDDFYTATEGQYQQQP

[13] = biological target: Fibroblast growth factor receptor 3 (Homo sapiens, UniProt P22607); assay: Inhibition of FGFR3 (unknown origin) incubated for 5 mins prior to ATP addition measured after 10 mins by Alphascreen assay
[14] = biological target: Serine/threonine-protein kinase B-raf (Homo sapiens, UniProt P15056); assay: Inhibition of wild type N-terminal FLAG-tagged B-raf (unknown origin) expressed in baculovirus expression system incubated for 5 mins prior to [gamma-33P]ATP addition measured after 20 mins by scintillation counting analysis
[15] = biological target: Mitogen-activated protein kinase kinase kinase 5 (Homo sapiens, UniProt Q99683); assay: Inhibition of N-terminal FLAG-tagged ASK1 (unknown origin) expressed in baculovirus expression system incubated for 5 mins prior to [gamma-33P]ATP addition measured after 60 mins by scintillation counting analysis
[16] = biological target: Vascular endothelial growth factor receptor 2 (Homo sapiens, UniProt P35968); assay: Inhibition of N-terminal FLAG-tagged VEGFR2 cytoplasmic domain (unknown origin) incubated for 5 mins prior to ATP addition measured after 10 mins by Alphascreen assay
[17] = biological target: Mast/stem cell growth factor receptor Kit (Homo sapiens, UniProt P10721); assay: Inhibition of c-kit (unknown origin) incubated for 5 mins prior to ATP addition measured after 20 mins by Alphascreen assay
Mast/stem cell growth factor receptor Kit, sequence (P10721 whole entry): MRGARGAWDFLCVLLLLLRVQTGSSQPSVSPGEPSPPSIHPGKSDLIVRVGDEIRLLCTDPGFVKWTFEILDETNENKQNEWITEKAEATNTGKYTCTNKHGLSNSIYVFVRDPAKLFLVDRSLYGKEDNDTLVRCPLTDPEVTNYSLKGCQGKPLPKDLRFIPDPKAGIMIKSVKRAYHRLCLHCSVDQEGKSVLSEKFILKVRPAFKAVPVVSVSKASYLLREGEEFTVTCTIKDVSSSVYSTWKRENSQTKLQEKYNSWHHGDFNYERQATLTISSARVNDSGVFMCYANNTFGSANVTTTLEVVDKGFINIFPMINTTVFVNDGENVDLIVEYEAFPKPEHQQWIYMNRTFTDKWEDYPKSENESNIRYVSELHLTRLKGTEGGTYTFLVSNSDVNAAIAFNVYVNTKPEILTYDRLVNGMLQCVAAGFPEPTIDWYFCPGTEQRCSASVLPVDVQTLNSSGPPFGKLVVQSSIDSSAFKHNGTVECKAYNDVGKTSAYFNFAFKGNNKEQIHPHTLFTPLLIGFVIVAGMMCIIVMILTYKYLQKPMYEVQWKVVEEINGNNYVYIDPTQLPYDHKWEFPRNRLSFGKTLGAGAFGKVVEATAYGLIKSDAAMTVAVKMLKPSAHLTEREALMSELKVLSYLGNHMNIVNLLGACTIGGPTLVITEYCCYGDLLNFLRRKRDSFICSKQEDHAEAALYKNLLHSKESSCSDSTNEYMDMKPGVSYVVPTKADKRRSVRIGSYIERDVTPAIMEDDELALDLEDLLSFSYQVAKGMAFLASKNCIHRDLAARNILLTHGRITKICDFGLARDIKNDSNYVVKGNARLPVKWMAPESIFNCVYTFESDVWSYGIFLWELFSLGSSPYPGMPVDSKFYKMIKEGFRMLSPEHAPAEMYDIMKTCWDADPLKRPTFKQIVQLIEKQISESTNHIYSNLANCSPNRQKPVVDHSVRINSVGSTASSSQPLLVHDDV

[18] = biological target: T2, Tyrosine-protein kinase Lyn; assay: Inhibition of LYNB (unknown origin) incubated for 5 mins prior to ATP addition measured after 10 mins by Alphascreen assay
[19] = biological target: Serine/threonine-protein kinase PLK1 (Homo sapiens, UniProt P53350); assay: Inhibition of N-terminal FLAG-tagged PLK (unknown origin) expressed in baculovirus expression system incubated for 5 mins prior to [gamma-33P]ATP addition measured after 40 mins by scintillation counting analysis
[20] = biological target: Dual specificity mitogen-activated protein kinase kinase 5 (Homo sapiens, UniProt Q13163); assay: Inhibition of N-terminal FLAG-tagged MEK5 (unknown origin) expressed in baculovirus expression system incubated for 5 mins prior to [gamma-33P]ATP addition measured after 30 mins by scintillation counting analysis
[21] = biological target: Inhibitor of nuclear factor kappa-B kinase subunit beta (Homo sapiens, UniProt O14920); assay: Inhibition of C-terminal FLAG-tagged IKKbeta (unknown origin) expressed in baculovirus expression system incubated for 5 mins prior to [gamma-33P]ATP addition measured after 5 mins by scintillation counting analysis
[22] = biological target: Cytoplasmic tyrosine-protein kinase BMX (Homo sapiens, UniProt P51813); assay: Inhibition of N-terminal FLAG-tagged full length BMX (unknown origin) expressed in baculovirus expression system incubated for 5 mins prior to ATP addition measured after 10 mins by Alphascreen assay
[23] = biological target: Mitogen-activated protein kinase kinase kinase 1 (Homo sapiens, UniProt Q13233); assay: Inhibition of C-terminal FLAG-tagged MEKK (unknown origin) expressed in baculovirus expression system incubated for 5 mins prior to [gamma-33P]ATP addition measured after 60 mins by scintillation counting analysis
[24] = biological target: Tyrosine-protein kinase ZAP-70 (Homo sapiens, UniProt P43403); assay: Inhibition of ZAP70 (unknown origin) incubated for 5 mins prior to ATP addition measured after 10 mins by Alphascreen assay
[25] = biological target: Dual specificity mitogen-activated protein kinase kinase 1 (Homo sapiens, UniProt Q02750); assay: Inhibition of N-terminal GST-fused MEK1 (unknown origin) incubated for 5 mins prior to [gamma-33P]ATP addition measured after 20 mins by scintillation counting analysis
Aurora kinase B = Aurora kinase B (Homo sapiens, UniProt Q96GD4); assay: Inhibition of N-terminal His6x-tagged aurora-B (unknown origin) expressed in baculovirus expression system incubated for 5 mins prior to [gamma-33P]ATP addition measured after 60 mins by scintillation counting analysis
[26] = biological target: Tyrosine-protein kinase Lck (Homo sapiens, UniProt P06239); assay: Inhibition of LCK (unknown origin) incubated for 5 mins prior to ATP addition measured after 30 mins by Alphascreen assay
[27] = biological target: Platelet-derived growth factor receptor alpha (Homo sapiens, UniProt P16234); assay: Inhibition of PDGFRalpha (unknown origin) incubated for 5 mins prior to ATP addition measured after 30 mins by Alphascreen assay
Platelet-derived growth factor receptor alpha, sequence (P16234 whole entry): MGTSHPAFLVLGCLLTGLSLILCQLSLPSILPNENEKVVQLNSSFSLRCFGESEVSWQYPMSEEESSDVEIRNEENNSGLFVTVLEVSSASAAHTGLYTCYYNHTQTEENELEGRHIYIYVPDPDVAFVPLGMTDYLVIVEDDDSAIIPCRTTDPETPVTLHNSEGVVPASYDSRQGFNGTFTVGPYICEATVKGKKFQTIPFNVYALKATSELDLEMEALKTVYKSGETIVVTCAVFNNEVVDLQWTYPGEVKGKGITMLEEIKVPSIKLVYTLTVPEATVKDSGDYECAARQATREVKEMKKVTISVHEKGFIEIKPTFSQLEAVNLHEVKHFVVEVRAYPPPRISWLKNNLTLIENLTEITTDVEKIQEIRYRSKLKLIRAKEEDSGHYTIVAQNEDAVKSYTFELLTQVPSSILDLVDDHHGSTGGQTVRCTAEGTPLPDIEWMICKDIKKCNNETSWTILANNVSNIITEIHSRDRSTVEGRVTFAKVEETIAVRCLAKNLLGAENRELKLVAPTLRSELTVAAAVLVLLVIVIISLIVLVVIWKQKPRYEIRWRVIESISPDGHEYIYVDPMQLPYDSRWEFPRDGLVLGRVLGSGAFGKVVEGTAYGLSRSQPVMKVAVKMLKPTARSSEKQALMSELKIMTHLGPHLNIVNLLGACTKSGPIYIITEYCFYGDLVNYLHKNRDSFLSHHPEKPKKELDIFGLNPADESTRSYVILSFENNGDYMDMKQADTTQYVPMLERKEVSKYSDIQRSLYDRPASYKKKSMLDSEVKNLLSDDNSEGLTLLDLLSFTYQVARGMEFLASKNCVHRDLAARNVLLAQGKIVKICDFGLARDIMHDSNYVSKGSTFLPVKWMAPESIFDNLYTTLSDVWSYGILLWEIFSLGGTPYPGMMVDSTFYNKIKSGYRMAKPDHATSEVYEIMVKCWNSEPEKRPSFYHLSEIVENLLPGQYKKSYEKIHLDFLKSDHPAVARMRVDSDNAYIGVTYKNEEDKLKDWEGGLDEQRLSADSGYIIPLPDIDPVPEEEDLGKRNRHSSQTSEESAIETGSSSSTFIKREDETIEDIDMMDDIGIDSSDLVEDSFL

[28] = biological target: Vascular endothelial growth factor receptor 1 (Homo sapiens, UniProt P17948); assay: Inhibition of VEGFR1 (unknown origin) incubated for 5 mins prior to ATP addition measured after 5 mins by Alphascreen assay
[29] = biological target: Mitogen-activated protein kinase 14 (Homo sapiens, UniProt Q16539); assay: Inhibition of N-terminal FLAG-tagged p38alpha (unknown origin) expressed in baculovirus expression system incubated for 5 mins prior to [gamma-33P]ATP addition measured after 60 mins by scintillation counting analysis
[30] = biological target: Mitogen-activated protein kinase 8 (Homo sapiens, UniProt P45983); assay: Inhibition of N-terminal FLAG-tagged JNK1 (unknown origin) expressed in baculovirus expression system incubated for 5 mins prior to [gamma-33P]ATP addition measured after 60 mins by scintillation counting analysis
[31] = biological target: T1, Receptor tyrosine-protein kinase erbB-2; assay: Pseudo-irreversible inhibition of human N-terminal DYKDDDD-tagged HER2 cytoplasmic domain (676 to 1255) expressed in baculovirus expression system at 10 times IC50 preincubated for 15 mins followed by 100 fold dilution measured after 16 hrs by Alphascreen assay
[32] = biological target: Glycogen synthase kinase-3 beta (Homo sapiens, UniProt P49841); assay: Inhibition of N-terminal FLAG-tagged GSK3beta (unknown origin) expressed in baculovirus expression system incubated for 5 mins prior to [gamma-33P]ATP addition measured after 30 mins by scintillation counting analysis
[33] = biological target: Hepatocyte growth factor receptor (Homo sapiens, UniProt P08581); assay: Inhibition of c-MET (unknown origin) incubated for 5 mins prior to ATP addition measured after 10 mins by Alphascreen assay
Insulin receptor = Insulin receptor (Homo sapiens, UniProt P06213); assay: Inhibition of InsR (unknown origin) incubated for 5 mins prior to ATP addition measured after 60 mins by Alphascreen assay

IC50 [1]: 100 nM
IC50 [2]: 110 nM
GI50 (BT-474): 2000 nM
Compound: COC(=O)C1=Cc2c(ncnc2Nc2ccc(Oc3cccc(C(F)(F)F)c3)c(Cl)c2)NCC1

IC50 [1]: 65 nM
IC50 [2]: 75 nM
GI50 (BT-474): 620 nM
Compound: CS(=O)(=O)CCNC(=O)C1=Cc2c(ncnc2Nc2ccc(Oc3cccc(C(F)(F)F)c3)c(Cl)c2)NCC1

IC50 [1]: 24 nM
IC50 [3]: 240 nM
IC50 (Angiopoietin-1 receptor): > 10000 nM
IC50 [4]: > 10000 nM
IC50 [5]: > 10000 nM
IC50 [6]: > 10000 nM
IC50 [7]: > 10000 nM
IC50 [8]: > 10000 nM
IC50 [9]: > 10000 nM
IC50 [10]: > 10000 nM
IC50 [11]: > 10000 nM
IC50 [12]: 9800 nM
IC50 [13]: > 10000 nM
IC50 [14]: 230 nM
IC50 [15]: > 10000 nM
IC50 [16]: > 10000 nM
IC50 [17]: > 10000 nM
IC50 [18]: 3000 nM
IC50 [19]: > 10000 nM
IC50 [20]: 870 nM
IC50 [21]: > 10000 nM
IC50 [22]: > 10000 nM
IC50 [23]: > 10000 nM
IC50 [24]: > 10000 nM
IC50 [25]: > 10000 nM
IC50 (Aurora kinase B): > 10000 nM
IC50 [26]: 3200 nM
IC50 [27]: > 10000 nM
IC50 [28]: > 10000 nM
GI50 (BT-474): 18 nM
IC50 [29]: 1700 nM
IC50 [30]: > 10000 nM
inhibition [31]: Active
IC50 [32]: > 10000 nM
IC50 [33]: 5600 nM
IC50 (Insulin receptor): > 10000 nM
Compound: O=C(NCCO)C1=Cc2c(ncnc2Nc2ccc(Oc3cccc4sccc34)c(Cl)c2)NCC1

IC50 [1]: 29 nM
IC50 [2]: 38 nM
GI50 (BT-474): 630 nM
Compound: O=C(NCCO)C1=Cc2c(ncnc2Nc2ccc(Oc3cccc(C(F)(F)F)c3)c(Cl)c2)NCC1

IC50 [1]: 30 nM
IC50 [2]: 47 nM
GI50 (BT-474): 25 nM
Compound: CS(=O)(=O)CCNC(=O)C1=Cc2c(ncnc2Nc2ccc(Oc3cccc4sccc34)c(Cl)c2)NCC1

GI50 (BT-474): 17 nM
Compound: CC(C)(O)CC(=O)NCCn1ccc2ncnc(Nc3ccc(Oc4cccc(C(F)(F)F)c4)c(Cl)c3)c21 [TAK-285]

IC50 [1]: 18 nM
IC50 [2]: 44 nM
GI50 (BT-474): 190 nM
Compound: COC(=O)C1=Cc2c(ncnc2Nc2ccc(Oc3cccc4sccc34)c(Cl)c2)NCC1
